Data as given in patent US9920030B2 (priority 2006, dated 2018).
Like-named read-outs stand apart in the source and are kept apart here.

Tests used:
Format in all cases: in vivo
[1] = system: Plasmopara vilicola (the causal agent of grape downy mildew); assay: Test A: grape downy mildew, test suspension sprayed on grape seedlings after inoculation, visual disease rating; settings: for pest or weed control at 40 ppm: Plasmopara, 144 h, read-out: Percent Disease Control, Test A
Summary of the method: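 Compounds dissolved in acetone (3% of final volume), suspended in 50/50 acetone/water with 250 ppm Trem 014; 200 ppm to run-off equals 500 g/ha. Seedlings inoculated, held saturated at 20 °C 24 h, then sprayed; 5 days at 20 °C, 24 h saturated, then visual rating, 0–100% control versus untreated.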

[2] = system: Phytophthora infestans (the causal agent of tomato late blight); assay: whole plant or invertebrate; settings: for pest or weed control at 40 ppm: Phytophthora infestans, 144 h, read-out: Percent Disease Control, Test B
[3] = system: Phytophthora infestans (the causal agent of tomato late blight); assay: whole plant or invertebrate; settings: for pest or weed control at 40 ppm: Phytophthora infestans, 96 h, read-out: Percent Disease Control, Test C
[4] = compounds without asterisk (application rate not given), 100 = 100% disease control, 0 = no control relative to the controls

Compound: Cc1cc(C(F)(F)F)nn1CC(=O)N1CCC(c2nc(C3=NOC(C[S+](C)[O-])(c4ccccc4)C3)cs2)CC1 (stereo not drawn) [Compound 144]
- Percent Disease Control, Test A ([1]; * tested at 40 ppm): 99%
- Percent Disease Control, Test B ([2]; * tested at 40 ppm): 100%
- Percent Disease Control, Test C ([3]; * tested at 40 ppm): 93%

Compound: Cc1cc(C(F)(F)F)nn1CC(=O)N1CCC(c2nc(C3=CC(C)(c4ccccc4)OC3=O)cs2)CC1 (stereo not drawn) [Compound 145]
- Percent Disease Control, Test A [1, 4]: 17%
- Percent Disease Control, Test B [2, 4]: 58%
- Percent Disease Control, Test C [3, 4]: 0%

Compound: Cc1c(C2(C)CC(c3csc(C4CCN(C(=O)Cn5nc(C(F)(F)F)cc5C)CC4)n3)=NO2)sc2cccc(Cl)c12 (stereo not drawn) [Compound 146]
- Percent Disease Control, Test A [1, 4]: 83%
- Percent Disease Control, Test B [2, 4]: 100%
- Percent Disease Control, Test C [3, 4]: 53%

Compound: Cc1cc(C(F)(F)F)nn1CC(=O)N1CCC(c2nc(C3=NOC(C)(c4csc5ccccc45)C3)cs2)CC1 (stereo not drawn) [Compound 147]
- Percent Disease Control, Test A ([1]; * tested at 40 ppm): 100%
- Percent Disease Control, Test B ([2]; * tested at 40 ppm): 100%
- Percent Disease Control, Test C ([3]; * tested at 40 ppm): 95%

Compound: Cc1cc(C(F)(F)F)nn1CC(=O)N1CCC(c2nc(C3=NOC(c4ccsc4)C3)cs2)CC1 (stereo not drawn) [Compound 148]
- Percent Disease Control, Test A ([1]; ** tested at l0 ppm): 100%
- Percent Disease Control, Test B ([2]; ** tested at l0 ppm): 100%
- Percent Disease Control, Test C ([3]; ** tested at l0 ppm): 99%

Compound: Cc1cc(C(F)(F)F)nn1CC(=O)N1CCN(c2nc(C3=NOC(c4ccccc4)C3)cs2)CC1 (stereo not drawn) [Compound 154, 1-[4-[4-(4,5-dihydro-5-phenyl-3-isoxazolyl)-2-thiazolyl]-1-piperazinyl]-2-[5-methyl-3-(trifluoromethyl)-1H-pyrazol-1-yl]ethanone]
- pest or weed control at 40 ppm ([1]; * tested at 40 ppm): 90%
- pest or weed control at 40 ppm [2]: 100%
- pest or weed control at 40 ppm [3]: 99%

Compound: CC(=O)OCC1(c2ccccc2)CC(c2csc(C3CCN(C(=O)Cn4nc(C(F)(F)F)cc4C)CC3)n2)=NO1 (stereo not drawn) [Compound 156]
- Percent Disease Control, Test A ([1]; * tested at 40 ppm): 100%
- Percent Disease Control, Test B ([2]; * tested at 40 ppm): 100%
- Percent Disease Control, Test C ([3]; * tested at 40 ppm): 99%

Compound: Cc1cc(C(F)(F)F)nn1CC(=O)N1CCC(c2nc(C3=NOC(CO)(c4ccccc4)C3)cs2)CC1 (stereo not drawn) [Compound 159]
- Percent Disease Control, Test A [1, 4]: 94%
- Percent Disease Control, Test B [2, 4]: 100%
- Percent Disease Control, Test C [3, 4]: 99%

Compound: Cc1cc(C(F)(F)F)nn1CC(=O)N1CCC(c2nc(Cn3ccc(-c4ccccc4)n3)cs2)CC1 [Compound 160]
- Percent Disease Control, Test A [1, 4]: 68%
- Percent Disease Control, Test B [2, 4]: 80%
- Percent Disease Control, Test C [3, 4]: 17%

Compound: Cc1ccccc1[C@H]1CC(c2csc(C3CCN(C(=O)Cn4nc(C(F)(F)F)cc4C)CC3)n2)=NO1 [Compound 161, 1-[4-[4-[(5R)-4,5-dihydro-5-(2-methylphenyl)-3-isoxazolyl]-2-thiazolyl]-1-piperidinyl]-2-[5-methyl-3-(trifluoromethyl)-1H-pyrazol-1-yl]ethanone]
- pest or weed control at 40 ppm ([1]; * tested at 40 ppm): 100%
- pest or weed control at 40 ppm [2]: 100%
- pest or weed control at 40 ppm [3]: 99%

Compound: Cc1cc(C(F)(F)F)nn1CC(=O)N1CCC(c2nc(C3=NOC(c4cccs4)C3)cs2)CC1 (stereo not drawn) [Compound 162]
- Percent Disease Control, Test A ([1]; * tested at 40 ppm): 100%
- Percent Disease Control, Test B ([2]; * tested at 40 ppm): 100%
- Percent Disease Control, Test C ([3]; * tested at 40 ppm): 99%

Compound: Cc1cc(C)n(CC(=O)N2CCC(c3nc(C4=NO[C@]5(CCc6ccccc65)C4)cs3)CC2)n1 [Compound 165]
- Percent Disease Control, Test A ([1]; ** tested at l0 ppm): 99%
- Percent Disease Control, Test B ([2]; ** tested at l0 ppm): 100%
- Percent Disease Control, Test C ([3]; ** tested at l0 ppm): 99%

Compound: O=C(Cn1nc(Cl)cc1Cl)N1CCC(c2nc(C3=NOC(c4ccccc4)C3)cs2)CC1 (stereo not drawn) [Compound 166]
- Percent Disease Control, Test A ([1]; ** tested at l0 ppm): 100%
- Percent Disease Control, Test B ([2]; ** tested at l0 ppm): 100%
- Percent Disease Control, Test C ([3]; ** tested at l0 ppm): 98%

Compound: Cc1cc(C(F)(F)F)nn1CC(=O)N1CCC(c2nc(C3=NOC4(CCCCC4)C3)cs2)CC1 [Compound 169]
- Percent Disease Control, Test A [1, 4]: 100%
- Percent Disease Control, Test B [2, 4]: 100%
- Percent Disease Control, Test C [3, 4]: 99%

Compound: Cc1cc(C(F)(F)F)nn1CC(=O)N1CCC(c2nc(C3=NOC4(CCOCC4)C3)cs2)CC1 [Compound 173]
- Percent Disease Control, Test A ([1]; * tested at 40 ppm): 100%
- Percent Disease Control, Test B ([2]; * tested at 40 ppm): 100%
- Percent Disease Control, Test C ([3]; * tested at 40 ppm): 99%

Compound: Cc1cc(C(F)(F)F)nn1CC(=O)N1CCC(c2nc(C3=NOC4(CCCCCC4)C3)cs2)CC1 [Compound 174]
- Percent Disease Control, Test A ([1]; * tested at 40 ppm): 100%
- Percent Disease Control, Test B ([2]; * tested at 40 ppm): 100%
- Percent Disease Control, Test C ([3]; * tested at 40 ppm): 99%

Compound: CC(=O)N1N=C(c2csc(C3CCN(C(=O)Cn4nc(C(F)(F)F)cc4C)CC3)n2)OC12CCCc1ccccc12 (stereo not drawn) [Compound 177]
- Percent Disease Control, Test A ([1]; * tested at 40 ppm): 93%
- Percent Disease Control, Test B ([2]; * tested at 40 ppm): 100%
- Percent Disease Control, Test C ([3]; * tested at 40 ppm): 99%

Compound: Cc1cccc(C)c1[C@H]1CC(c2csc(C3CCN(C(=O)Cn4nc(C(F)(F)F)cc4C)CC3)n2)=NO1 [Compound 178, 1-[4-[4-[(5R)-5-(2,6-dimethylphenyl)-4,5-dihydro-3-isoxazolyl]-2-thiazolyl]-1-piperidinyl]-2-[5-methyl-3-(trifluoromethyl)-1H-pyrazol-1-yl]ethanone]
- pest or weed control at 40 ppm ([1]; * tested at 40 ppm): 100%
- pest or weed control at 40 ppm [2]: 100%
- pest or weed control at 40 ppm [3]: 99%

Compound: Cc1cc(C)c([C@H]2CC(c3csc(C4CCN(C(=O)Cn5nc(C(F)(F)F)cc5C)CC4)n3)=NO2)c(C)c1 [Compound 179, 1-[4-[4-[(5R)-4,5-dihydro-5-(2,4,6-trimethylphenyl)-3-isoxazolyl]-2-thiazolyl]-1-piperidinyl]-2-[5-methyl-3-(trifluoromethyl)-1H-pyrazol-1-yl]ethanone]
- pest or weed control at 40 ppm ([1]; * tested at 40 ppm): 99%
- pest or weed control at 40 ppm [2]: 100%
- pest or weed control at 40 ppm [3]: 98%

Compound: Cc1cc(C(F)(F)F)nn1CC(=O)N1CCC(c2nc(C3=NOC(c4ccncc4)C3)cs2)CC1 (stereo not drawn) [Compound 180]
- Percent Disease Control, Test A [1, 4]: 50%
- Percent Disease Control, Test B [2, 4]: 100%
- Percent Disease Control, Test C [3, 4]: 99%

Compound: CC(=O)N1N=C(c2csc(C3CCN(C(=O)Cn4nc(C(F)(F)F)cc4C)CC3)n2)OC1c1ccccc1 (stereo not drawn) [Compound 181]
- Percent Disease Control, Test A [1, 4]: 80%
- Percent Disease Control, Test B [2, 4]: 100%
- Percent Disease Control, Test C [3, 4]: 97%

Compound: CC(=O)N1N=C(c2csc(C3CCN(C(=O)Cn4nc(C(F)(F)F)cc4C)CC3)n2)OC1(C)c1ccccc1 (stereo not drawn) [Compound 182]
- Percent Disease Control, Test A [1, 4]: 99%
- Percent Disease Control, Test B [2, 4]: 100%
- Percent Disease Control, Test C [3, 4]: 97%

Compound: Cc1cc(C(F)(F)F)nn1CC(=O)N1CCC(c2nc(C3=NNC(c4ccccc4)C3)cs2)CC1 (stereo not drawn) [Compound 183]
- Percent Disease Control, Test A ([1]; * tested at 40 ppm): 92%
- Percent Disease Control, Test B ([2]; * tested at 40 ppm): 92%
- Percent Disease Control, Test C ([3]; * tested at 40 ppm): 33%

Compound: Cc1cc(C(F)(F)F)nn1CC(=O)N1CCC(c2nc(C3=NN(C)C(c4ccccc4)C3)cs2)CC1 (stereo not drawn) [Compound 184]
- Percent Disease Control, Test A ([1]; * tested at 40 ppm): 99%
- Percent Disease Control, Test B ([2]; * tested at 40 ppm): 95%
- Percent Disease Control, Test C ([3]; * tested at 40 ppm): 73%

Compound: Cc1cc(C(F)(F)F)nn1CC(=O)N1CCC(c2nc(C3=NO[C@]4(COc5ccccc54)C3)cs2)CC1 [Compound 185, 2-[5-methyl-3-(trifluoromethyl)-1H-pyrazol-1-yl]-1-[4-[4-(3R)-spiro[benzofuran-3(2H),5′(4′H)-isoxazol]-3′-yl-2-thiazolyl]-1-piperidinyl]ethanone]
- pest or weed control at 40 ppm ([1]; * tested at 40 ppm): 100%
- pest or weed control at 40 ppm [2]: 100%
- pest or weed control at 40 ppm [3]: 98%

Compound: Cc1cc(C(F)(F)F)nn1CC(=O)N1CCC(c2nc(C3=NOC(N4CCCC4=O)C3)cs2)CC1 (stereo not drawn) [Compound 188]
- Percent Disease Control, Test A ([1]; * tested at 40 ppm): 99%
- Percent Disease Control, Test B ([2]; * tested at 40 ppm): 100%
- Percent Disease Control, Test C ([3]; * tested at 40 ppm): 99%

Compound: Cc1cc(C(F)(F)F)nn1CC(=O)N1CCC(c2nc(C3=NOC(c4ccccc4Br)C3)cs2)CC1 (stereo not drawn) [Compound 189]
- Percent Disease Control, Test A ([1]; * tested at 40 ppm): 100%
- Percent Disease Control, Test B ([2]; * tested at 40 ppm): 100%
- Percent Disease Control, Test C ([3]; * tested at 40 ppm): 99%
